Some test systems named below: HT29 colon; HOP-92 NSCLC; SF-295 CNS; TK-10 renal; ACHN renal; RPMI-8226 leukemia; HOP-62 NSCLC; MOLT-4 leukemia; CCRF-CEM leukemia; MALME-3M melanoma; RXF 393 renal; U251 CNS; K-562 leukemia; HL-60(TB) leukemia.
What all share (assay): inhibition of tumour cell growth, NCI panel, 48 h

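Protocol summary: plate cells (96-well), add compound at 5 concentrations, incubate 48 h, interpolate endpoints linearly. Definition used: TGI = concentration required for complete inhibition of growth.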 Some results are limits rather than exact numbers.

As for `N#CCCN(C(=O)Nc1ccccc1)[C@H]1CCCC[C@@H]1N(C(=O)Nc1ccccc1)c1ccccc1`, the TGI in the assay on HT29 colon, in the assay with HOP-92 NSCLC, with SF-295 CNS, with TK-10 renal, in the assay with ACHN renal and in the assay with RPMI-8226 leukemia was above 100 µM each time. Also, the TGI in the assay with HOP-62 NSCLC, with MOLT-4 leukemia, with CCRF-CEM leukemia, in the assay with MALME-3M melanoma, in the assay on RXF 393 renal and with U251 CNS was above 100 µM throughout. This molecule returned a TGI in the assay with K-562 leukemia above 100 µM.
For the molecule `O=C1CCCC1CN1CCCC1` (stereo unspecified), the TGI in the assay on HT29 colon is above 59.7 µM; in the assay on HOP-92 NSCLC it was 12.6 µM; in the assay on SF-295 CNS it was above 100 µM; with TK-10 renal, 25.1 µM; in the assay with ACHN renal, 15 µM; in the assay with RPMI-8226 leukemia, 6.8 µM. Further, the TGI in the assay on HOP-62 NSCLC was above 100 µM; in the assay on MOLT-4 leukemia, 1.07 µM; in the assay with CCRF-CEM leukemia, 1.16 µM; in the assay with HL-60(TB) leukemia, 3.02 µM; with MALME-3M melanoma, 3.72 µM; with U251 CNS, above 56.8 µM. Further, the TGI in the assay with K-562 leukemia was 1.18 µM.
Consider `N#C/C1=C(\N)CCSSSC1`, for which the TGI in the assay with HT29 colon was above 100 µM; with HOP-92 NSCLC, 95.6 µM; in the assay on SF-295 CNS, 50.8 µM; in the assay with TK-10 renal, above 100 µM; with ACHN renal, above 100 µM; in the assay with RPMI-8226 leukemia it was above 100 µM. Besides, the TGI with HOP-62 NSCLC is 89.6 µM; in the assay on MOLT-4 leukemia it was above 100 µM; in the assay on CCRF-CEM leukemia, above 100 µM; with MALME-3M melanoma it was above 100 µM; with RXF 393 renal, above 100 µM; in the assay on U251 CNS, above 100 µM. Also, the TGI in the assay with K-562 leukemia is above 100 µM.
`NNC(=O)c1n[nH]nc1C(=O)NN`: the TGI in the assay on HT29 colon was 26.3 µM; with SF-295 CNS, above 100 µM; in the assay with TK-10 renal, above 100 µM; in the assay on RPMI-8226 leukemia, above 100 µM; in the assay with HOP-62 NSCLC, above 100 µM; in the assay on MOLT-4 leukemia, above 100 µM. Besides, the TGI is above 100 µM in the assay with CCRF-CEM leukemia; above 100 µM with HL-60(TB) leukemia; 33.1 µM in the assay with MALME-3M melanoma; above 100 µM with RXF 393 renal; above 100 µM with U251 CNS; above 100 µM in the assay with K-562 leukemia.
As for `O=C(O)[C@@H]1CCS(=O)(=O)N1`, the TGI with HT29 colon, in the assay on SF-295 CNS, in the assay on TK-10 renal, with ACHN renal, with HOP-62 NSCLC and in the assay on MOLT-4 leukemia was above 100 µM each time. Besides, the TGI in the assay with CCRF-CEM leukemia, in the assay on HL-60(TB) leukemia, with MALME-3M melanoma and in the assay on RXF 393 renal was above 100 µM in each case.
Regarding `CC1CN(C(=O)CN2CCC(CCCCN(C)C)CC2)c2ccccc2NC1=O` (stereo unspecified), the TGI in the assay with HT29 colon, in the assay on HOP-92 NSCLC, with SF-295 CNS, with ACHN renal, in the assay on RPMI-8226 leukemia and with HOP-62 NSCLC was above 100 µM in each case. The TGI with MOLT-4 leukemia, in the assay with CCRF-CEM leukemia, with HL-60(TB) leukemia, in the assay on MALME-3M melanoma, in the assay on U251 CNS and with K-562 leukemia was above 100 µM in each case.
Turning to `CCOC(=O)c1nnc2c(C(=O)OCC)c3ccccc3n2c1N`, the TGI with HT29 colon is above 100 µM; with SF-295 CNS, above 100 µM; with TK-10 renal, above 100 µM; in the assay with ACHN renal, above 100 µM; in the assay on RPMI-8226 leukemia, 6.39 µM; with HOP-62 NSCLC it was above 100 µM. Also, the TGI is above 100 µM in the assay with MOLT-4 leukemia; 5.52 µM in the assay with HL-60(TB) leukemia; 7.57 µM with MALME-3M melanoma; above 100 µM with RXF 393 renal; above 100 µM in the assay with U251 CNS; above 100 µM with K-562 leukemia.
Regarding `Nc1nc(N)c2c3c(cnc2n1)CC(c1ccccc1)CC3` (stereo unspecified), the TGI was 66.2 µM with HT29 colon; above 100 µM in the assay on SF-295 CNS; 97.9 µM in the assay on TK-10 renal; 31.7 µM with ACHN renal; above 100 µM in the assay with RPMI-8226 leukemia; 76.7 µM in the assay on HOP-62 NSCLC. The TGI with MOLT-4 leukemia was above 100 µM; in the assay on HL-60(TB) leukemia it was 24.8 µM; in the assay with MALME-3M melanoma, above 100 µM; in the assay with RXF 393 renal, 47.9 µM; with U251 CNS, above 100 µM; with K-562 leukemia, above 100 µM.
For the molecule `O=C1C(c2c(O)[nH]c3ccc(F)cc23)=Nc2ccccc21`, the TGI with HT29 colon was above 100 µM; in the assay with HOP-92 NSCLC it was 65.6 µM; in the assay on SF-295 CNS it was above 100 µM; in the assay on TK-10 renal, above 100 µM; in the assay on ACHN renal, above 100 µM; with RPMI-8226 leukemia, above 100 µM. Further, the TGI is above 100 µM in the assay on HOP-62 NSCLC; 81.5 µM in the assay with MOLT-4 leukemia; above 100 µM in the assay on CCRF-CEM leukemia; above 100 µM in the assay with MALME-3M melanoma; 9.77 µM in the assay with RXF 393 renal; 42.7 µM in the assay on U251 CNS. The molecule also had a TGI in the assay on K-562 leukemia above 100 µM.
In the case of `N#Cc1c2ccccc2cn1-c1ccc(F)cc1`, the TGI with HT29 colon is above 100 µM; in the assay on HOP-92 NSCLC, 68.5 µM; in the assay on SF-295 CNS, above 100 µM; in the assay on TK-10 renal it was above 100 µM; with ACHN renal, above 100 µM; in the assay on RPMI-8226 leukemia, 61.2 µM. The TGI was above 100 µM in the assay with HOP-62 NSCLC; 90.5 µM with MOLT-4 leukemia; above 100 µM in the assay on CCRF-CEM leukemia; 24.2 µM in the assay on HL-60(TB) leukemia; 86.1 µM in the assay on MALME-3M melanoma; above 100 µM in the assay with U251 CNS. Further, the TGI with K-562 leukemia is above 100 µM.
`O=C(O)C(NCc1ccccc1)C(NCc1ccccc1)C(=O)O` (stereo unspecified): the TGI in the assay on HT29 colon, with HOP-92 NSCLC, in the assay on SF-295 CNS, with TK-10 renal, with ACHN renal and in the assay with RPMI-8226 leukemia was above 100 µM in each case. For the same molecule, the TGI in the assay with HOP-62 NSCLC, in the assay on MOLT-4 leukemia, in the assay with CCRF-CEM leukemia, in the assay with HL-60(TB) leukemia, in the assay on MALME-3M melanoma and with U251 CNS was above 100 µM throughout. The same molecule registered a TGI in the assay on K-562 leukemia above 100 µM.

For the origin of these results see PubChem BioAssay (NCI).
